Experimental findings from ChEMBL document CHEMBL1201862, “PubChem BioAssay data set” (2004) are described below.

One assay concerns the target Procathepsin L (Homo sapiens, UniProt P07711).
Another assay addresses T1, Aspartyl aminopeptidase (Plasmodium falciparum 3D7, UniProt Q8I2J3).
T1 sequence (Q8I2J3 whole entry): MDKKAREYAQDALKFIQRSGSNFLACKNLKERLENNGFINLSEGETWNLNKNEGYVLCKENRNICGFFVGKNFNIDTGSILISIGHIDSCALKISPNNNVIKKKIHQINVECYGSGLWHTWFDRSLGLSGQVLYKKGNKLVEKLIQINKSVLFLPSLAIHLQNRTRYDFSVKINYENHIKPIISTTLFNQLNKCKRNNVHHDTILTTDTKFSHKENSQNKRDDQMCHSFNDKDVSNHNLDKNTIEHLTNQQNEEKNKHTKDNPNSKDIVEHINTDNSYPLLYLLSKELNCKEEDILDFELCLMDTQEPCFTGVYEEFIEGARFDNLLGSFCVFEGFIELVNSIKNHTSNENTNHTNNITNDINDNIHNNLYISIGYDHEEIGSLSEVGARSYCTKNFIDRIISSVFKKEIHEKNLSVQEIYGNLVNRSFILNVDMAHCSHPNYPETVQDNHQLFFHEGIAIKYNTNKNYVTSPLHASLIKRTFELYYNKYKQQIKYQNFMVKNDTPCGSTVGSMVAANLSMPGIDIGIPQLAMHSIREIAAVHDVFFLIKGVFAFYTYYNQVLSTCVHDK

Assay [1] has as its target RNA-editing ligase 1, mitochondrial (Trypanosoma brucei brucei, UniProt P86926). Put plainly: inhibition of trypanosome RNA editing ligase – biochemical, fluorescence, Trypanosoma brucei, dose response (AID 1117295). In kind it is functional.
A further assay has as its target Large T antigen (Simian virus 40, UniProt P03070). It is filed as functional, Betapolyomavirus macacae.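 Further: Confirmatory-stage PubChem screen for compounds that inhibit SV40 T antigen.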
Assay [2] in a line: Trypanosoma cruzi growth suppression in host cells – NIH3T3 host cells, beta-gal luminescence, confirmation (AID 2044).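 Further: intracellular parasites grown in NIH/3T3 mouse fibroblasts as host cells; luminescent beta-galactosidase reporter signal from transgenic T. cruzi replicating inside host cells; inhibitors lower the luminescence signal.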 In kind it is functional, cell-based.
Assay [3] has as its target T2, Alkaline phosphatase, tissue-nonspecific isozyme (Homo sapiens, UniProt P05186).
T2 sequence (P05186 whole entry): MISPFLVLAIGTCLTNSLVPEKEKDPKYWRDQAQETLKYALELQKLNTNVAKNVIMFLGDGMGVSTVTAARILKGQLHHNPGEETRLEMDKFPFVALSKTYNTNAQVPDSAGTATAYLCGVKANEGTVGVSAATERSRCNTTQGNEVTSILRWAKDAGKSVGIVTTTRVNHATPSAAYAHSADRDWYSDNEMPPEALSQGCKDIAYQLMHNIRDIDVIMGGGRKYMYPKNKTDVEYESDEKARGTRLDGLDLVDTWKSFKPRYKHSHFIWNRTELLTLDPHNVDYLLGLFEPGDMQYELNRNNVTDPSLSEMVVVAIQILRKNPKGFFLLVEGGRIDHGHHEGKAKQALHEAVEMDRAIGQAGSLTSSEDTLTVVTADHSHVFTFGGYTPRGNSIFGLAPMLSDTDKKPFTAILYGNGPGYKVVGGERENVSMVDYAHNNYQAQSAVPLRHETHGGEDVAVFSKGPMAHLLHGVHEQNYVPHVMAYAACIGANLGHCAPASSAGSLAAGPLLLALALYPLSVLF

Assay [4] in a line: NIH3T3 cell viability loss – ATP luminescence, mouse fibroblasts, counter-screen, dose response (AID 2010).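 Further: cells exposed to compound for about 90 hours before reading.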 In kind it is functional, cell-based.
Assay [5] deals with Lysosomal acid glucosylceramidase (Homo sapiens, UniProt P04062). Put plainly: Dose response cell-based high throughput screening assay to identify enhancers of beta-glucosidase activity. [Related pubchem assays: 784 ]. It is filed as functional.
Assay [6] concerns Vibrio harveyi. Put plainly: Quorum Sensing, LuxS, LuxPQ Measured in Microorganism System Using Plate Reader - 2035-01_Inhibitor_DoseNoFile_DryPowder_Activity. [Related pubchem assays (depositor defined):AID2106]. In kind it is functional, organism-based.
For assay [7], the system named is Vibrio harveyi. Put plainly: LuxS/LuxPQ-dependent luminescence inhibition, V. harveyi – dry powder, set 2, dose response (AID 493072). It is filed as functional, organism-based.
The target of the next assay is Bcl-2-like protein 10 (Homo sapiens, UniProt Q9HD36). The assay is described as follows: Bcl-B/TR3 peptide binding disruption – biochemical, fluorescence polarization, FITC-TR3 peptide, selectivity assay for Bfl-1 inhibitor project, primary screen (AID 748).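 Further: fluorescence polarization from a fluorescein-labelled TR3 peptide binding purified Bcl-B.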
Assay [8] addresses T3, Estrogen receptor beta (Homo sapiens, UniProt Q92731).
Assay [9] deals with T3, Estrogen receptor beta. Put plainly: blockers of SRC-3 recruitment to ERβ – biochemical, ELISA, streptavidin-HRP readout, orthogonal assay, confirmation (AID 1060).
The target of another assay is Albumin (Bos taurus, UniProt P02769). The assay is described as follows: Counterscreen for inhibitors of T-cell receptor (TCR)-CD3 interaction: Fluorescence-based biochemical high throughput dose response assay to identify inhibitors of T-cell receptor (TCR)-CD3 interaction using a TAMRA-labeled BSA probe. In kind it is functional.
Another assay has as its target Genome polyprotein (Hepatitis C virus, UniProt Q2Q167). Put plainly: disruption of hepatitis C core self-association – biochemical, TR-FRET, dose response (AID 2159).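 Further: blocks dimerization of HCV core protein measured by TR-FRET between tagged core106 pairs.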 Further details: species or system Hepacivirus hominis.
The target of assay [10] is T4, Small ubiquitin-related modifier 1 (Homo sapiens, UniProt P63165). Put plainly: SUMO1 protein interaction blockers, potency – biochemical, fluorescence polarization, uHTS hits, dose response (AID 624382). The settings on record: read-out: IC50_Mean. In kind it is functional.
T4 sequence (P63165 whole entry): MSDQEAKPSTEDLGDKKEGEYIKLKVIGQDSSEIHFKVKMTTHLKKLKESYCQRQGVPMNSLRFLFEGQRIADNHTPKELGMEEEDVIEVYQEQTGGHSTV
For the next assay, the target named is SUMO E1/E2 (Homo sapiens, UniProt P63279+Q9UBE0+Q9UBT2). Put plainly: SAR analysis of SUMOylation using HTRF in an in-Vitro dose response assay. [Related pubchem assays (depositor defined):AID2006, AID2011, AID2018, AID2069, AID2658]. In kind it is functional.
In assay [11] the target is T5, Voltage-gated N-type calcium channel alpha-1B subunit/Amyloid beta A4 precursor protein-binding family A member 1 (Homo sapiens, UniProt Q00975+Q02410). In kind it is protein assay.
T5 sequence (Q00975 whole entry): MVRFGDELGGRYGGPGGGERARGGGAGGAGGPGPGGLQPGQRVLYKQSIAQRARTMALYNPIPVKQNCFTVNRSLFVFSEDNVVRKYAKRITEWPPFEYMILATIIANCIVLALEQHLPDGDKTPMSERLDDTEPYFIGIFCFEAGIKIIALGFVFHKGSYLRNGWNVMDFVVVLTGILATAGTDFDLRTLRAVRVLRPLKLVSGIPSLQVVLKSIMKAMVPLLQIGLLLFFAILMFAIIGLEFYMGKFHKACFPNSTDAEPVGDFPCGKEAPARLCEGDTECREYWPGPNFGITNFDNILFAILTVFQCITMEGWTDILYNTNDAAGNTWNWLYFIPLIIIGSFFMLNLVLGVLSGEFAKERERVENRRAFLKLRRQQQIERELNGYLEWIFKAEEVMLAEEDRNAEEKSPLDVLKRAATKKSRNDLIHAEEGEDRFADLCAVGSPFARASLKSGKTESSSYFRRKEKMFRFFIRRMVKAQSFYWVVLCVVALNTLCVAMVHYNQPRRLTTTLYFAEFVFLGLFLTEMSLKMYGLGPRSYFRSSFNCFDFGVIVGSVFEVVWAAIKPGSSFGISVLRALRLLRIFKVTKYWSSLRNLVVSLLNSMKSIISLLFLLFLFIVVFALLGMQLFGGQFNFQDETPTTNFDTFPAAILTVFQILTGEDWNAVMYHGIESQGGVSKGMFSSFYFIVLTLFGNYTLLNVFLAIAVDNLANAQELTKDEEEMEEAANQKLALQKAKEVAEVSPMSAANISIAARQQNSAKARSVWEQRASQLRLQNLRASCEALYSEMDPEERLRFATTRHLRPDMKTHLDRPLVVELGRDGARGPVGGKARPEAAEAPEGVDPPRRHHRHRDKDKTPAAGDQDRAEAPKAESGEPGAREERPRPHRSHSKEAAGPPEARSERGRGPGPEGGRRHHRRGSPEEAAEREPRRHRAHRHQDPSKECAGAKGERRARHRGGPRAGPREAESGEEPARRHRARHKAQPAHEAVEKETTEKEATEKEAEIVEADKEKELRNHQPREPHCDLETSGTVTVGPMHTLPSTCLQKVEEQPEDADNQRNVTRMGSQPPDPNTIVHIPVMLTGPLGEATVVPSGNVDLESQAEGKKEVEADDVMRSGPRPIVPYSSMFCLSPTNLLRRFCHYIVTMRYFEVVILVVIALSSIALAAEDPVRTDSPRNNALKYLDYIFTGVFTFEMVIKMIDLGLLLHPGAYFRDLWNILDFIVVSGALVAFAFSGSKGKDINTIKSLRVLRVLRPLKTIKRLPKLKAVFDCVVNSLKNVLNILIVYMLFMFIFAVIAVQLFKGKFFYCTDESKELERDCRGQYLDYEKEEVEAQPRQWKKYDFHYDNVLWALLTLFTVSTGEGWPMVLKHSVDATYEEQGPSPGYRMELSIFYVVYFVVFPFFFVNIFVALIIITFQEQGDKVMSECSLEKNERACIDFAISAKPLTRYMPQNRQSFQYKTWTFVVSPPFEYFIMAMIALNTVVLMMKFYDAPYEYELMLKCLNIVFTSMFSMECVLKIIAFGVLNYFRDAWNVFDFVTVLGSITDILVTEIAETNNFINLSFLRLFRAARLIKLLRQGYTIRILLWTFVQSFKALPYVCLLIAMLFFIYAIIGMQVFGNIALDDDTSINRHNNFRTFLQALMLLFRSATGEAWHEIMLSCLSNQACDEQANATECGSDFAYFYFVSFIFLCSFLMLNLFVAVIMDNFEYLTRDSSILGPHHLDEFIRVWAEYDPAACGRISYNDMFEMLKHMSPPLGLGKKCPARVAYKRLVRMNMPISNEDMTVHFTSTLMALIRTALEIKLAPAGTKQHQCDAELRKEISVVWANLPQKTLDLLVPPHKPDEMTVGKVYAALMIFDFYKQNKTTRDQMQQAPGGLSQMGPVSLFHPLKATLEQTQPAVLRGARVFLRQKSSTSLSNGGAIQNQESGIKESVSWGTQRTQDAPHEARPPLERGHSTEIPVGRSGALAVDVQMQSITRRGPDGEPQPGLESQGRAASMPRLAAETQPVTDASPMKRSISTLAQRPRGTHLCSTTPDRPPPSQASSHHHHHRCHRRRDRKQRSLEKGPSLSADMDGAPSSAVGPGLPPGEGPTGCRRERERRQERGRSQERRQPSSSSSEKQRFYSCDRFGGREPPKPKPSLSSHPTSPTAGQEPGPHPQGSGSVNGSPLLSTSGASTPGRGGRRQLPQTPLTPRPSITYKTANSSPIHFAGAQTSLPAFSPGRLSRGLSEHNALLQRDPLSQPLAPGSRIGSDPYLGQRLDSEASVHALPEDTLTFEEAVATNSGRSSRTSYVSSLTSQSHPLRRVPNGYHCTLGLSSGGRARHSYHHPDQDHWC
T5 sequence (Q02410 whole entry): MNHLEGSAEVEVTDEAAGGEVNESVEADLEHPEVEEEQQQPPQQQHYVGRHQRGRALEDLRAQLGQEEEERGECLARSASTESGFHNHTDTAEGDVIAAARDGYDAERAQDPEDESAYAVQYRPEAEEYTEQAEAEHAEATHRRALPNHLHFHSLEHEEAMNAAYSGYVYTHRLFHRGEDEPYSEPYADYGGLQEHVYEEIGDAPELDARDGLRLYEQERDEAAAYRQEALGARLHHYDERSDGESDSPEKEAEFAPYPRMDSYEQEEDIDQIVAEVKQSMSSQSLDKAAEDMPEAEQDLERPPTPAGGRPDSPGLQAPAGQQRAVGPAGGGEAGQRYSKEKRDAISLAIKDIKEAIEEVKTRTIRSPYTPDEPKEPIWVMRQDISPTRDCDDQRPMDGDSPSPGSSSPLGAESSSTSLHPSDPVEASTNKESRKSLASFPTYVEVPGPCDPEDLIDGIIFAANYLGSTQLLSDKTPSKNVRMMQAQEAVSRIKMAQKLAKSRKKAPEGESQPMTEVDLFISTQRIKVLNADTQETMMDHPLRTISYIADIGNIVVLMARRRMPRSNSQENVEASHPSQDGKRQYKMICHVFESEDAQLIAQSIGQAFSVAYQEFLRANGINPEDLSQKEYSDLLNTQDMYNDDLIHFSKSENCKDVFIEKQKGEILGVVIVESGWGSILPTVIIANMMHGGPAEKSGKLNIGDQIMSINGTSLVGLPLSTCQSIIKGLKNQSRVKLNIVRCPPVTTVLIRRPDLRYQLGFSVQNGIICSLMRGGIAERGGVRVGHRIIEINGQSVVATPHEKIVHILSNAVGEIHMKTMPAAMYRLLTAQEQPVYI
In assay [12] the target is T4, Small ubiquitin-related modifier 1. Put plainly: SUMO1 protein-protein binding blockers, potency – biochemical, FRET, dose response (AID 624383). In kind it is functional. The settings on record: read-out: IC50_Mean.
Assay [13] concerns the target T5, Voltage-gated N-type calcium channel alpha-1B subunit/Amyloid beta A4 precursor protein-binding family A member 1. Put plainly: disruptors of Mint-PDZ/N-type channel peptide interaction – biochemical, HTRF, set 2, SAR follow-up (AID 434980). In kind it is functional.
The target is the same in assay [14]. Put plainly: disruptors of Mint-PDZ/N-type channel peptide interaction – biochemical, HTRF, SAR follow-up (AID 2489). It is filed as functional.
Assay [15] concerns the target Induced myeloid leukemia cell differentiation protein Mcl-1 (Homo sapiens, UniProt Q07820). It is filed as functional.
The target in assay [16] is T5, Voltage-gated N-type calcium channel alpha-1B subunit/Amyloid beta A4 precursor protein-binding family A member 1. It is filed as protein assay. The source holds these as a separate data set.
Assay [17] has as its target G-protein coupled receptor 35 (Homo sapiens, UniProt Q9HC97). Put plainly: inhibition of zaprinast-stimulated GPR35 beta-arrestin translocation – imaging, U2OS, beta-arrestin-GFP, zaprinast agonist, primary screen (AID 2058).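 Further: antagonist potency meaning inhibition of agonist-induced arrestin redistribution.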 It is filed as functional.
A further assay addresses Wee1-like protein kinase (Homo sapiens, UniProt P30291). The assay is described as follows: HeLa cell cycle G2/M accumulation – FACS, mechanism study for Wee1 degradation inhibitor project, late-stage follow-up, panel member Wee1 Degradation (AID 2088).
Assay [18] deals with G2/mitotic-specific cyclin-B1 (Homo sapiens, UniProt P14635). Put plainly: HeLa cell cycle G2/M accumulation – FACS, mechanism study for Wee1 degradation inhibitor project, late-stage follow-up, panel member Cyclin B Degradation (AID 2088).
For a further assay, the target named is Protein Rev (Human immunodeficiency virus type 1 group M subtype B (isolate WMJ22)(HIV-1), UniProt P05866). The assay is described as follows: inhibitors of Rev protein–RRE RNA complex – biochemical, protein-RNA interaction, dose response (AID 842). Further details: species or system Human immunodeficiency virus 1.
Assay [19] deals with T6, Eukaryotic translation initiation factor 2-alpha kinase 3 (Homo sapiens, UniProt Q9NZJ5). Put plainly: Dose response cell-based high-throughput screening assay to measure PERK inhibition. [Related pubchem assays: 1416 ]. In kind it is functional.
T6 sequence (Q9NZJ5 whole entry): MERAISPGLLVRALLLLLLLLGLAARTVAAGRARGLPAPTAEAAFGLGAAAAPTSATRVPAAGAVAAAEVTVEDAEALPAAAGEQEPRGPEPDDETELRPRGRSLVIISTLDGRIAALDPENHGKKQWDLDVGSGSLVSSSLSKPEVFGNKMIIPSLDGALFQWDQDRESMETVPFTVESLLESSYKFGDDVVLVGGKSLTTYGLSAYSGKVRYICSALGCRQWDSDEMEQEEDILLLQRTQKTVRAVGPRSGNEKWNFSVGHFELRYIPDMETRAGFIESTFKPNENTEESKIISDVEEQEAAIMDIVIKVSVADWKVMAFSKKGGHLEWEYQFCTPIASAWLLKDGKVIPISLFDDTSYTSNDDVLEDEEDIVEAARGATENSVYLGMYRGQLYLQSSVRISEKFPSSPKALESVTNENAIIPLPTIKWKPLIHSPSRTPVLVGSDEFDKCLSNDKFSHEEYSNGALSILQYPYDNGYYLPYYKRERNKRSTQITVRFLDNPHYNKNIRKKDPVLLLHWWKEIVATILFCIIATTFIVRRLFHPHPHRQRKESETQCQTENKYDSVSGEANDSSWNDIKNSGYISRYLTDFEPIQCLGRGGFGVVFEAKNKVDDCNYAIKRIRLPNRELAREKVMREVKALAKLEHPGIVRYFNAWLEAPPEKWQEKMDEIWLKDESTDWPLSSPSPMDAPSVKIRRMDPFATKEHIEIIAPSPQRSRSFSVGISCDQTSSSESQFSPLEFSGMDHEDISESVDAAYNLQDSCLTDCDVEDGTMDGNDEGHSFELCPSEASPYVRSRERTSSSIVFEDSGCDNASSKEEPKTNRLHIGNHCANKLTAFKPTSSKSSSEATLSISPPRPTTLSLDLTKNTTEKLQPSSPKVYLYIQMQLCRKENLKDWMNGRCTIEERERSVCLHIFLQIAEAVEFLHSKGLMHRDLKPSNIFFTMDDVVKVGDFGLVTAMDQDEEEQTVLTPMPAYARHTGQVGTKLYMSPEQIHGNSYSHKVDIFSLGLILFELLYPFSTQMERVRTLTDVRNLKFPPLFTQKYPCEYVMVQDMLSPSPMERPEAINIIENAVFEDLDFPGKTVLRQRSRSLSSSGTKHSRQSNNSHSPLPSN
Assay [20] concerns the target T6, Eukaryotic translation initiation factor 2-alpha kinase 3. The assay is described as follows: Counterscreen assay for PERK inhibitors: Dose response cell-based high throughput screening assay to measure inhibition of PERK at 6 hours. [Related pubchem assays: 1522, 1416 ]. In kind it is functional.

The source made the active and inactive calls.

T3 sequence (Q92731 whole entry): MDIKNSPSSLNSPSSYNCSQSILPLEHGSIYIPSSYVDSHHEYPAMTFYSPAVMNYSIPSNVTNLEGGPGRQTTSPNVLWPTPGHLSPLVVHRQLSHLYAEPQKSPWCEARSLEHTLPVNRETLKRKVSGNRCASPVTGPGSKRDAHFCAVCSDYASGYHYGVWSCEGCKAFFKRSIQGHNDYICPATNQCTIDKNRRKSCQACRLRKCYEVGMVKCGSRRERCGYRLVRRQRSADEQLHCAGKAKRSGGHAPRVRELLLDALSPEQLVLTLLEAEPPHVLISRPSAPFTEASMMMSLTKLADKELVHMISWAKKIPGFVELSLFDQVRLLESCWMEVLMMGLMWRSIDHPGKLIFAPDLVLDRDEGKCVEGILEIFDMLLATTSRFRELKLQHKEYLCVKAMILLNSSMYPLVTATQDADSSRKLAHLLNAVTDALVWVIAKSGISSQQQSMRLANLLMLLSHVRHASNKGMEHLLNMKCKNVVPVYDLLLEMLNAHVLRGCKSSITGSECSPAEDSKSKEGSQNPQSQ
Genome polyprotein, sequence (Q2Q167 whole entry): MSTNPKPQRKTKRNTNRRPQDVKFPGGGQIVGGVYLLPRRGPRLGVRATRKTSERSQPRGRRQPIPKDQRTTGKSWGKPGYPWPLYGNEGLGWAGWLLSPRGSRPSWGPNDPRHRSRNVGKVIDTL

As for `O=C1NC(=O)C(=Cc2ccc(-c3ccc(F)cc3O)o2)C(=O)N1`, the IC50 against Procathepsin L was > 59.6 µM (not active); on Aspartyl aminopeptidase, 4.13 µM (active); in assay [1], 63.8 µM (inactive); at Large T antigen, 39.9 µM (active).

Regarding `CCOC(=O)c1c(NC(=O)N/N=C/c2ccccc2OCC)sc(C(C)=O)c1C`, the EC50 in [2] is 2.88 µM (active); in assay [3] it was > 100 µM (not active); in [4], > 60 µM (not active).

`COc1ccc(CN(Cc2cc3cccc(C)c3nc2O)C(=O)N(C)C)cc1`: in assay [5], the concentration for a half-maximal effect (EC50) is reported as > 10 µM (not active).

Regarding `Cn1cnc(S(=O)(=O)Nc2ccc(OC(F)(F)F)cc2)c1`, the values for the AC50 in the assay on Vibrio harveyi [6], with Vibrio harveyi [7] and with Vibrio harveyi [7] (Vibrio harveyi) were 3.13 µM (active), 4.67 µM (active) and 5.06 µM (active), respectively.

As to `Cc1ccc(S(=O)(=O)Cc2ccc(C(=O)N3CCc4ccccc4C3)o2)cc1`, the IC50 on Bcl-2-like protein 10 is 20.5 µM (active); at Estrogen receptor beta [8], 4.88 µM (active); against Estrogen receptor beta [9] it was < 0.023 µM (not active).

Regarding `CN(C(=O)COC(=O)c1cc(-c2ccco2)nc2ccccc12)C1CCS(=O)(=O)C1` (stereo not given), the IC50 at Albumin was > 94.1 µM (inactive); against Genome polyprotein it was > 49.8 µM (not active); in [10], > 66.6 µM (inactive); on SUMO E1/E2 it was 2.66 µM (active); in assay [11], 2.15 µM (active); in [12] it was 4.99 µM (active). The IC50 in assay [13] is 3.26 µM (active); in assay [14] it was 4.74 µM (active); in assay [15], 1.59 µM (active); in assay [16] it was 28.8 µM (active).

On to `Cc1nnc(NC(=O)c2sc3nc(-c4cccs4)cc(C(F)(F)F)c3c2N)s1`, for which the IC50 in [17] is 0.61 µM (active).

For the molecule `CCOC(=O)c1cccc(NC(=O)CCCOc2cc(=O)n(C)c3ccccc23)c1`, the EC50 (on Wee1-like protein kinase; in [18]) was > 49.7 µM (inactive) each time.

On to `COc1ccc(C2N=C(N)N=C(N)N2c2ccc(C)cc2)cc1` (stereo not given), for which the IC50 on Protein Rev is given as > 79.4 µM (not active).

For `COc1ccc(Nc2nnc(C)c(O)n2)c(OC)c1`, the 50% effective concentration (EC50) in assay [19] and in [20] was > 55.7 µM (not active) each time.
